Results on 27 compounds are retold here after US7893077B2, “Bisaryl-sulfonamides” (Amgen Inc., priority 2004, dated 2011).

By IC50 is commonly meant the concentration at which inhibition is half-maximal. A low value points to inhibition by little substance.

Molecules are shown by their SMILES.

In the assay the target is T1, PPARγ (Homo sapiens, UniProt P37231).
T1 construct: made in house
T1 sequence (P37231 1-505): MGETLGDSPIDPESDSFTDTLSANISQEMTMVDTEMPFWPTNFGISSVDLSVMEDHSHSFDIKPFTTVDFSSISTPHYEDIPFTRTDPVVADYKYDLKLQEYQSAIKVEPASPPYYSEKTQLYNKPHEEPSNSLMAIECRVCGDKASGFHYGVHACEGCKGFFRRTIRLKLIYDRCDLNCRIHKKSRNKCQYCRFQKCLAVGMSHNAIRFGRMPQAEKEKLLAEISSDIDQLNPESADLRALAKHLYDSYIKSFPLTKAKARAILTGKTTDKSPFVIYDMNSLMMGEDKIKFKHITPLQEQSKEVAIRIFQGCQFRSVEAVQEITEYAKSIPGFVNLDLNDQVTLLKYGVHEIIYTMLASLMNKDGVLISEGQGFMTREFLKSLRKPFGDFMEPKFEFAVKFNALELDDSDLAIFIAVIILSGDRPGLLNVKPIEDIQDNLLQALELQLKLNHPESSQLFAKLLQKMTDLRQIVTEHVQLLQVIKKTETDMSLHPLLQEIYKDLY
The assay is described as follows: PPARγ ligand binding assay utilizing [3H]-BRL 49653 as the radioligand (filtration). The note with it: concentration required to reduce by 50% the specific binding of [3H]-BRL 49653. In outline:
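Displacement of 10 nM [3H]-BRL 49653 from PPARγ-GST fusion protein in Tris-HCl pH 8.0 buffer with KCl, DTT, BSA and NP-40, 15 min incubation, then glutathione-bead capture for 1 h. Bound radioactivity counted after filtration washes; IC50 is concentration giving 50% loss of specific binding, reported in ranges.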

For the compound `CCN(CC)S(=O)(=O)c1ccc(Sc2ccc(NS(=O)(=O)c3ccc(C(F)(F)F)cc3Cl)nc2C(=O)C2CC2)cc1` [Compound 100, 2-Chloro-N-[6-cyclopropanecarbonyl-5-(4-diethylsulfamoyl-phenylsulfanyl)-pyridin-2-yl]-4-trifluoromethyl-benzenesulfonamide], the IC50 is less than 1000 nM. In turn, `CCCC(=O)c1nc(NS(=O)(=O)c2ccc(C(F)(F)F)cc2Cl)ccc1Sc1ccc(S(=O)(=O)C2CCOCC2)cc1` [Compound 101, N-{6-Butyryl-5-[4-(tetrahydro-pyran-4-sulfonyl)-phenylsulfanyl]-pyridin-2-yl}-2-chloro-4-trifluoromethyl-benzenesulfonamide] returned an IC50 of less than 1000 nM. Compound `O=C(c1nc(NS(=O)(=O)c2ccc(C(F)(F)F)cc2Cl)ccc1Sc1ccc(S(=O)(=O)C2CCOCC2)cc1)C1CC1` [Compound 102, 2-Chloro-N-{6-cyclopropanecarbonyl-5-[4-(tetrahydro-pyran-4-sulfonyl)-phenylsulfanyl]-pyridin-2-yl}-4-trifluoromethyl-benzenesulfonamide] came in with an IC50 of less than 1000 nM.

Regarding `Cc1nc(NS(=O)(=O)c2ccc(C(F)(F)F)cc2Cl)ccc1Sc1ccc(S(=O)(=O)N2CCOCC2)cc1` [Compound 103, 2-Chloro-N-{6-methyl-5-[4-(morpholine-4-sulfonyl) -phenylsulfanyl]-pyridin-2-yl}-4-trifluoromethyl-benzenesulfonamide], the half-maximal inhibitory concentration (IC50) was less than 1000 nM. As to `CCc1nc(NS(=O)(=O)c2ccc(Cl)cc2Cl)ccc1Sc1ccc(S(=O)(=O)N2CCOCC2)cc1` [Compound 104, 2,4-Dichloro-N-{6-ethyl-5-[4-(morpholine-4-sulfonyl) -phenylsulfanyl]-pyridin-2-yl}-benzenesulfonamide], the half-inhibitory concentration (IC50) is less than 10000 nM. For `CCc1nc(NS(=O)(=O)c2ccc(C(F)(F)F)cc2Cl)ccc1Sc1ccc(S(=O)(=O)N2CCOCC2)cc1` [Compound 105, 2-Chloro-N-{6-ethyl-5-[4-(morpholine-4-sulfonyl) -phenylsulfanyl]-pyridin-2-yl}-4-trifluoromethyl-benzenesulfonamide] the value was less than 10000 nM.

With `CCCC(=O)c1nc(NS(=O)(=O)c2ccc(Cl)cc2Cl)ccc1Sc1ccc(S(=O)(=O)C(C)C)cc1` [Compound 106, N-{6-Butyryl-5-[4-(propane-2-sulfonyl)-phenylsulfanyl]-pyridin-2-yl}-2,4-dichloro-benzenesulfonamide], the IC50 is less than 1000 nM.

Regarding `CC(C)S(=O)(=O)c1ccc(Sc2ccc(NS(=O)(=O)c3ccc(Cl)cc3Cl)nc2C(=O)C2CC2)cc1` [Compound 107, 2,4-Dichloro-N-{6-cyclopropanecarbonyl-5-[4-(propane-2-sulfonyl)-phenylsulfanyl]-pyridin-2-yl}-benzenesulfonamide], the concentration for half-maximal inhibition (IC50) was less than 1000 nM. In turn, `O=S(=O)(Nc1ccc(Sc2ccc(S(=O)(=O)N3CCOCC3)cc2)c(C(F)(F)F)n1)c1ccc(Cl)cc1Cl` [Compound 108, 2,4-Dichloro-N-{5-[4-(morpholine-4-sulfonyl)-phenylsulfanyl]-6-trifluoromethyl-pyridin-2-yl}-benzenesulfonamide] showed an IC50 of less than 10000 nM. The result for `O=S(=O)(Nc1ccc(Sc2ccc(S(=O)(=O)N3CCOCC3)cc2)c(C(F)(F)F)n1)c1ccc(C(F)(F)F)cc1Cl` [Compound 109, 2-Chloro-N-{5-[4-(morpholine-4-sulfonyl)-phenylsulfanyl]-6-trifluoromethyl-pyridin-2-yl}-4-trifluoromethyl-benzenesulfonamide] reads less than 10000 nM; that for `CCCOc1nc(NS(=O)(=O)c2ccc(C(F)(F)F)cc2Cl)ccc1Sc1ccc(S(=O)(=O)N2CCCCC2)cc1` [Compound 110, 2-Chloro-N-{5-[4-(piperidine-1-sulfonyl)-phenylsulfanyl]-6-propoxy-pyridin-2-yl}-4-trifluoromethyl-benzenesulfonamide], less than 10000 nM.

For the compound `CCCOc1nc(NS(=O)(=O)c2ccc(Cl)cc2Cl)ccc1Sc1ccc(S(=O)(=O)N2CCCCC2)cc1` [Compound 111, 2,4-Dichloro-N-{5-[4-(piperidine-1-sulfonyl)-phenylsulfanyl]-6-propoxy-pyridin-2-yl}-benzenesulfonamide], the IC50 is less than 10000 nM. The compound `CCCC(=O)c1nc(NS(=O)(=O)c2ccc(Cl)cc2Cl)ccc1Sc1ccc(S(=O)(=O)C2CCCC2)cc1` [Compound 112, N-[6-Butyryl-5-(4-cyclopentanesulfonyl-phenylsulfanyl)-pyridin-2-yl]-2,4-dichloro-benzenesulfonamide] yielded an IC50 of less than 1000 nM. For `O=C(c1nc(NS(=O)(=O)c2ccc(Cl)cc2Cl)ccc1Sc1ccc(S(=O)(=O)C2CCCC2)cc1)C1CC1` [Compound 113, 2,4-Dichloro-N-[5-(4-cyclopentanesulfonyl-phenylsulfanyl)-6-cyclopropanecarbonyl-pyridin-2-yl]-benzenesulfonamide], the half-maximal inhibitory concentration (IC50) is less than 1000 nM.

As for `CCCC(=O)c1nc(NS(=O)(=O)c2ccc(C(F)(F)F)cc2Cl)ccc1Sc1ccc(S(=O)(=O)C2CCCC2)cc1` [Compound 114, N-[6-Butyryl-5-(4-cyclopentanesulfonyl-phenylsulfanyl)-pyridin-2-yl]-2-chloro-4-trifluoromethyl-benzenesulfonamide], the IC50 was less than 1000 nM. The compound `O=C(c1nc(NS(=O)(=O)c2ccc(C(F)(F)F)cc2Cl)ccc1Sc1ccc(S(=O)(=O)C2CCCC2)cc1)C1CC1` [Compound 115, 2-Chloro-N-[5-(4-cyclopentanesulfonyl-phenylsulfanyl)-6-cyclopropanecarbonyl-pyridin-2-yl]-4-trifluoromethyl-benzenesulfonamide] came in with an IC50 of less than 1000 nM. Compound `CCCC(=O)c1nc(NS(=O)(=O)c2ccc(C(F)(F)F)cc2Cl)ccc1Sc1ccc(S(=O)(=O)C(CC)CC)cc1` [Compound 116, N-{6-Butyryl-5-[4-(pentane-3-sulfonyl)-phenylsulfanyl]-pyridin-2-yl}-2-chloro-4-trifluoromethyl-benzenesulfonamide] returned a concentration for half-maximal inhibition (IC50) of less than 1000 nM.

As for `CCC(CC)S(=O)(=O)c1ccc(Sc2ccc(NS(=O)(=O)c3ccc(C(F)(F)F)cc3Cl)nc2C(=O)C2CC2)cc1` [Compound 117, 2-Chloro-N-{6-cyclopropanecarbonyl-5-[4-(pentane-3-sulfonyl)-phenylsulfanyl]-pyridin-2-yl}-4-trifluoromethyl-benzenesulfonamide], the IC50 was less than 10000 nM. In the case of `CCCC(=O)c1nc(NS(=O)(=O)c2ccc(Cl)cc2Cl)ccc1Sc1ccc(S(=O)(=O)NCC)cc1` [Compound 118, N-[6-Butyryl-5-(4-ethylsulfamoyl-phenylsulfanyl)-pyridin-2-yl]-2,4-dichloro-benzenesulfonamide], the IC50 was less than 1000 nM.

`CCNS(=O)(=O)c1ccc(Sc2ccc(NS(=O)(=O)c3ccc(Cl)cc3Cl)nc2C(=O)C2CC2)cc1` [Compound 119, 2,4-Dichloro-N-[6-cyclopropanecarbonyl-5-(4-ethylsulfamoyl-phenylsulfanyl)-pyridin-2-yl]-benzenesulfonamide]: the IC50 is less than 1000 nM.

Compound `CCCC(=O)c1nc(NS(=O)(=O)c2ccc(C(F)(F)F)cc2Cl)ccc1Sc1ccc(S(=O)(=O)NCC)cc1` [Compound 120, N-[6-Butyryl-5-(4-ethylsulfamoyl-phenylsulfanyl)-pyridin-2-yl]-2-chloro-4-trifluoromethyl-benzenesulfonamide] displayed a half-maximal inhibitory concentration (IC50) of less than 1000 nM.

With `CCNS(=O)(=O)c1ccc(Sc2ccc(NS(=O)(=O)c3ccc(C(F)(F)F)cc3Cl)nc2C(=O)C2CC2)cc1` [Compound 121, 2-Chloro-N-[6-cyclopropanecarbonyl-5-(4-ethylsulfamoyl-phenylsulfanyl)-pyridin-2-yl]-4-trifluoromethyl-benzenesulfonamide], the concentration for half-maximal inhibition (IC50) was less than 1000 nM.

For the compound `CCCCc1nc(NS(=O)(=O)c2ccc(Cl)cc2Cl)ccc1Sc1ccc(S(=O)(=O)N2CCCCC2)cc1` [Compound 122, N-{6-Butyl-5-[4-(piperidine-1-sulfonyl)-phenylsulfanyl]-pyridin-2-yl}-2,4-dichloro-benzenesulfonamide], the IC50 is less than 1000 nM. `CCCCc1nc(NS(=O)(=O)c2ccc(C(F)(F)F)cc2Cl)ccc1Sc1ccc(S(=O)(=O)N2CCCCC2)cc1` [Compound 123, N-{6-Butyl-5-[4-(piperidine-1-sulfonyl)-phenylsulfanyl]-pyridin-2-yl}-2-chloro-4-trifluoromethyl-benzenesulfonamide] gave an IC50 of less than 1000 nM. The result for `CCCCc1nc(NS(=O)(=O)c2ccc(Cl)cc2Cl)ccc1Sc1ccc(S(=O)(=O)N2CCOCC2)cc1` [Compound 124, N-{6-Butyl-5-[4-(morpholine-4-sulfonyl)-phenylsulfanyl]-pyridin-2-yl}-2,4-dichloro-benzenesulfonamide] reads less than 1000 nM. Take `CCCCc1nc(NS(=O)(=O)c2ccc(C(F)(F)F)cc2Cl)ccc1Sc1ccc(S(=O)(=O)N2CCOCC2)cc1` [Compound 125, N-{6-Butyl-5-[4-(morpholine-4-sulfonyl)-phenylsulfanyl]-pyridin-2-yl}-2-chloro-4-trifluoromethyl-benzenesulfonamide]: the IC50 is less than 1000 nM. `CCCCCOC(=O)c1cc(NS(=O)(=O)c2ccc(Cl)cc2Cl)ncc1Sc1ccc(S(=O)(=O)N2CCCCC2)cc1` [Compound 126, 2-(2,4-Dichloro-benzenesulfonylamino)-5-[4-(piperidine-1-sulfonyl)-phenylsulfanyl]-isonicotinic acid pentyl ester] yielded a 50% inhibitory concentration (IC50) of less than 1000 nM.
